For assay [1], the system named is Escherichia coli. Put plainly: Antimicrobial activity against Escherichia coli DH10B harboring pBR322 with Salmonella enterica HN-GSS-2007-057 qnrD gene by broth microdilution assay. To be noted: K-12 DH10B. It is filed as functional. (In general: In broth dilution the organism is exposed to a series of concentrations in liquid medium.)
The subject of assay [2] is Escherichia coli. Briefly: Antimicrobial activity against Escherichia coli DH10B harboring pBR322 by broth microdilution assay. The assay is classed as functional. To be noted: K-12 DH10B.
The test system of assay [3] is Escherichia coli. Put plainly: Antimicrobial activity against Escherichia coli DH10B by broth microdilution assay. It is filed as functional. To be noted: K-12 DH10B.
In assay [4] the test system is Escherichia coli. Briefly: Antimicrobial activity against Escherichia coli DH10B harboring p2007057 by broth microdilution assay. The assay is classed as functional. To be noted: K-12 DH10B.
The test system of assay [5] is Escherichia coli. Put plainly: Antimicrobial activity against Escherichia coli DH10B harboring pBR322 with Salmonella enterica HN-GSS-2007-057 qnrA1 gene by broth microdilution assay. It is filed as functional. To be noted: K-12 DH10B.
Assay [6] deals with Escherichia coli. Briefly: Antimicrobial activity against Escherichia coli DH10B harboring pBR322 with Salmonella enterica HN-GSS-2007-057 qnrS1 gene by broth microdilution assay. It is filed as functional. Particulars: K-12 DH10B.
Assay [7] can be described thus: Antimicrobial activity against Salmonella enterica serovar Bovismorbificans by broth microdilution assay. It is filed as functional, Salmonella enterica subsp. enterica serovar Bovismorbificans.
Assay [8] concerns Salmonella enterica. Briefly: Antimicrobial activity against Salmonella enterica HN-GSS-2007-057 by broth microdilution assay. The assay is classed as functional, organism-based.
The subject of assay [9] is Salmonella enterica. Put plainly: Antimicrobial activity against Salmonella enterica HN-GSS2007-0.033 by broth microdilution assay. The assay is classed as functional, organism-based.
For assay [10], the system named is Salmonella enterica. Put plainly: Antimicrobial activity against Salmonella enterica HN-GSS2007-0.056 by broth microdilution assay. The assay is classed as functional, organism-based.
The test system of assay [11] is Salmonella enterica. Put plainly: Antimicrobial activity against Salmonella enterica HN-GSS2006-142 by broth microdilution assay. The assay is classed as functional, organism-based.
Assay [12] is described as follows: Antimicrobial activity against Salmonella enterica serovar Kentucky by broth microdilution assay.

Molecules are shown by their SMILES. ≈ marks a conversion by molar mass, not a printed value. Calls of active or inactive are those of the source.

On to `CCn1cc(C(=O)O)c(=O)c2ccc(C)nc21` [NALIDIXIC ACID], for which the MIC (usually the smallest concentration in the dilution series that meets the test's criterion for growth inhibition) was 4 µg/mL (≈ 17.2 µM) in the assay on Escherichia coli [1]; 2 µg/mL (≈ 8.61 µM) against Escherichia coli [2]; 2 µg/mL (≈ 8.61 µM) in the assay on Escherichia coli [3]; 8 µg/mL (≈ 34.4 µM) against Escherichia coli [4]; 8 µg/mL (≈ 34.4 µM) with Escherichia coli [5]; 8 µg/mL (≈ 34.4 µM) in the assay with Escherichia coli [6]. The same compound had a minimal inhibitory concentration (MIC) in assay [7] of 8 µg/mL (≈ 34.4 µM).
On to `CCn1cc(C(=O)O)c(=O)c2cc(F)c(N3CCNCC3)cc21` [NORFLOXACIN], for which the outcome in the assay on Salmonella enterica [8], in the assay with Salmonella enterica [9], with Salmonella enterica [10] and with Salmonella enterica [11] was Active. The MIC in the assay with Escherichia coli [1] is 0.06 µg/mL (≈ 0.188 µM); against Escherichia coli [2], 0.015 µg/mL (≈ 0.047 µM); in the assay on Escherichia coli [3], 0.015 µg/mL (≈ 0.047 µM); in the assay with Escherichia coli [4] it was 0.125 µg/mL (≈ 0.391 µM); with Escherichia coli [5], 0.25 µg/mL (≈ 0.783 µM); against Escherichia coli [6], 0.5 µg/mL (≈ 1.57 µM).
As for `O=C(O)c1cn(C2CC2)c2cc(N3CCNCC3)c(F)cc2c1=O` [CIPROFLOXACIN], the MIC in [12] is 0.125 µg/mL (≈ 0.377 µM).
Turning to `CC1COc2c(N3CCN(C)CC3)c(F)cc3c(=O)c(C(=O)O)cn1c23` (stereo unspecified) [OFLOXACIN], the outcome with Salmonella enterica [8], with Salmonella enterica [9], in the assay with Salmonella enterica [10] and in the assay with Salmonella enterica [11] was Active. Moreover, the MIC in the assay on Escherichia coli [1] stood at 0.125 µg/mL (≈ 0.346 µM); against Escherichia coli [2] it was 0.032 µg/mL (≈ 0.0886 µM); against Escherichia coli [4], 0.25 µg/mL (≈ 0.692 µM); against Escherichia coli [5], 0.25 µg/mL (≈ 0.692 µM).

The values above are taken from ChEMBL document CHEMBL1629619, “qnrD, a novel gene conferring transferable quinolone resistance in Salmonella enterica serovar Kentucky and Bovismorbificans strains of human origin” (2009).
